The values that follow come from patent US7144880B2, “Compositions relating to novel compounds and targets thereof” (Regents of the University of Michigan, priority 2003, dated 2006).

The target in assay [1] is T1, mitochondrial F1F0-ATPase (Bos taurus, UniProt P13621).
T1 construct: from tissue
The assay is described as follows: ATPase activity in sub-mitochondrial particles (SMPs). The format is biochemical, bovine. Particulars: bovine SMPs; read-out: ED50, inhibition of mitochondrial ATPase activity. An excerpt: Oligomycin, a macrolide natural product that binds to the mitochondrial F1F0-ATPase, induces a state 3 to 4 transition and generates O2^− like Bz-423. Based on these similarities, it is possible that the F1F0-ATPase is also the molecular target for Bz-423. To test this hypothesis, the effect of Bz-423 on ATPase activity in sub-mitochondrial particles (SMPs) was examined.
>40 derivatives of Bz-423 were developed to determine the elements on this novel agent required for biological activity. […] The potency of these analogues in cell based assays correlated with the ED50 values in ATPase inhibition experiments using SMPs.

For assay [2], the system named is Ramos cells. The experiment in a line: Antiproliferation, 72 h, media with 10% FBS. Particulars: read-out: ED50 (μM) for antiproliferation. The class given is cell-based, human. How it is done: (§1) Like most 1,4-benzodiazepines, Bz-423 binds strongly to bovine serum albumin (BSA), which reduces the effective concentration of drug free in solution. For example, in tissue culture media containing 10% (v/v) fetal bovine serum (FBS), ca. 99% of the drug is bound to BSA. Therefore, cell culture cytotoxicity assays are conducted in media with 2% FBS to reduce binding to BSA and increase the free [Bz-423]. Under these conditions, the dose response-curve is quite sharp such that there is a limited concentration range at which Bz-423 is only partly effective. Since some benzodiazepines are known to have anti-proliferative properties, the effect of Bz-423 at concentrations <ED50 were carefully analyzed and observed that in addition to inducing apoptosis, Bz-423 prevented cell growth after 3 d in culture. In these low serum conditions, the cytotoxic and anti-proliferative effects overlapped making it difficult to study each effect independently. […] While higher amounts of drug may also block proliferation, it caused apoptosis well before the effects on proliferation could be observed.
(§2) To confirm the decrease in cell number relative to control cells after 3 d of treatment is due to decreased proliferation and not cell death balanced by proliferation, in addition to cell counting, cell divisions were studied. PKH-67 is a fluorescent probe that binds irreversibly to cell membranes and upon cell division is partitioned equally between the daughter cells, making it possible to quantify cell division by flow cytometry. Ramos cells stained with PKH67 and treated with Bz-423 had fewer cell divisions at sub-cytotoxic concentrations which confirmed that the decrease in cell number was due to anti-proliferative affects and not cell death. To determine if Bz-423 induced anti-proliferation was specific to Ramos cells, cell counting and cell cycle experiments were done in other B cell lines and cell lines derived from solid tumors.

For assay [3], the system named is Ramos clones transfected to overexpress Bcl-2. The experiment in a line: Antiproliferation, 72 h, media with 10% FBS. The class given is cell-based, human. The settings on record: Bcl-2 overexpressing Ramos, read-out: ED50 (μM) for antiproliferation. How it is done: as §1, §2
Assay [4] relates to isolated rat liver mitochondria. The experiment in a line: ROS production in isolated mitochondria (DCFH oxidation to DCF). The format is biochemical. As to the method: Male Long Evans rats are starved overnight and sacrificed by decapitation. Liver samples are homogenized in ice cold buffer A (250 mM sucrose, 10 mM Tris, 0.1 mM EGTA, pH 7.4), and nuclei and cellular debris are pelleted (10 min, 830 g, 4° C.). Mitochondria are collected by centrifugation (10 min, 15,000 g, 4° C.), and the supernatant is collected as the S15 fraction. The mitochondrial pellet is washed three times with buffer B (250 mM sucrose, 10 mM Tris, pH 7.4), and re-suspended in buffer B at 20–30 mg/mL. Mitochondria are diluted (0.5 mg/mL) in buffer C (200 mM sucrose, 10 mM Tris, pH 7.4, 1 mM KH2PO4, 10 μM EGTA, 2.5 μM rotenone, 5 mM succinate) containing 2′,7′-dichlorodihydrofluorescin diacetate (DCFH-DA, 1 μM). For state 3 measurements, ADP (2 mM) is included in the buffer, and prior to the addition of Bz-423, mitochondria are allowed to charge for 2 min. To induce state 4, oligomycin (10 μM) is added to buffer C. […] To detect effects on O2^− and delta ψm, mitochondria are incubated for 15 min at 37° C. in buffer C with vehicle, Bz-423, or CCCP containing DHE (5 μM) or DIOC6(3) (20 nM), and aliquots are removed for analysis by fluorescence microscopy.
O2^− production by Bz-423 may result from binding to a protein within mitochondria or a target in another compartment that signals mitochondria to generate ROS. To distinguish between these alternatives, isolated rat liver mitochondria were assayed for ROS production by monitoring the oxidation of 2′,7′-dichlorodihydrofluorescin diacetate to of 2′,7′-dichlorofluorescin in the presence and absence of Bz-423. In this assay, the rate of DCF production increased after a lag period during which endogenous reducing equivalents were consumed and the acetate moieties on the probe were hydrolyzed to yield 2′,7′-dichlorodihydrofluorescin, the redox-active species.

For assay [5], the system named is Ramos cells. The assay is described as follows: Gene expression profiling (Affymetrix U133A) of treated cells. The class given is cell-based, human. The settings on record: versus control cells. As to the method: In vitro testing with Ramos cells to determine the changes in gene expression (at the level of mRNA) induced by Bz-423 was performed by culturing cells at a density of 500,000 cells per ml. Solvent control (DMSO, final concentration 0.1% V/V]), Bz-423, or Bz-OMe (10 μM) was added to cells. After 4 h, cells were harvested and RNA prepared using Trizol Reagent (#15596-018, Life Technologies, Rockville, Md.) and the RNeasy Maxi Kit (# 75162, Qiagen, Valencia, Calif.) according to manufacturers protocols. Single stranded cDNA was synthesized by reverse transcription using poly (A) RNA present in the starting total RNA sample. Single stranded cDNA was converted into double stranded cDNA and then in vitro transcription carried out in the presence of biotinylated UTP and CTP to produce biotin-labeled cRNA. cRNA was fragmented in the presence of Mg2+, and hybridized to the human genome U133A Genechip array (Affymetrix). Hybridization results were quantified using a GeneArray scanner and analysis carried out according to the instructions provided by Affymetrix. […]
The data were analyzed to detect genes changes Bz treatment according to the criteria that the log-transformed mean signal changed at least four-fold in treated compared to vehicle control samples and that the coefficient of variance for control values (n=4) was less than 10%. […]

Assay [6] deals with sub-mitochondrial particles. The experiment in a line: Redox cycling, NADH and NAD(P)H oxidation assays with sub-mitochondrial particles. The format is biochemical. The settings on record: SMPs. As to the method: By contrast, replacing the hydroxyl with chlorine or azide, or methylating the phenol effectively abolishes the cytotoxic activity of Bz-423. […] Such agents accept an electron from MRC enzymes and transfer it back to the chain at point of higher reducing potential. This type of ‘redox cycling’ consumes endogenous reducing equivalents (e.g., glutathione) along with […] nucleotides and results in cell death. To distinguish between these alternatives, it was determined whether Bz-423 redox cycles in the presence of sub-mitochondrial particles using standard NADH and NAD(P)H oxidation assays.

Regarding `CN1C(=O)C(Cc2ccc3ccccc3c2)N=C(c2ccc(O)cc2)c2cc(Cl)ccc21` (stereo not shown) [Bz-423], the EC50 in assay [1] was roughly 5 µM; in assay [2], 10.7 µM; in assay [3], 11.9 µM. In addition, the “Increase in rate of ROS production versus control” value in assay [4] (state 3 respiration, aerobic, after induction phase, slopes compared to control) was “nearly two-fold”. Also, the “ROS production in state 4 mitochondria” value in assay [4] (state 4 respiration) was “does not stimulate ROS”. In assay [5], the “Induction of MIF expression” value is listed as “approximately 10 fold”. Also, the “Redox cycling (substrate oxidation)” value in assay [6] was “does not lead to substrate oxidation”.
